Non-standard residues stand in square brackets, D forms with d. Residues, ends and D or L forms follow the SMILES beside them. *: point of attachment. tBuAla = CC(C)(C)C[C@H](N)C(=O)O; Cha = N[C@@H](CC1CCCCC1)C(=O)O; Tle = CC(C)(C)[C@H](N)C(=O)O; Nle = CCCC[C@H](N)C(=O)O; Cbz = O=C(OCc1ccccc1)*; Boc = CC(C)(C)OC(=O)*; Bn = c1ccc(C*)cc1; tBu = CC(C)(C)*

The text below walks through data of ChEMBL document CHEMBL1130294, “Subsite requirements for peptide aldehyde inhibitors of human calpain I” (Bioorg Med Chem Lett, 1997).

For this test, the target named is T1, Calpain-1 catalytic subunit (Homo sapiens, UniProt P07384).
T1 sequence (P07384 whole entry): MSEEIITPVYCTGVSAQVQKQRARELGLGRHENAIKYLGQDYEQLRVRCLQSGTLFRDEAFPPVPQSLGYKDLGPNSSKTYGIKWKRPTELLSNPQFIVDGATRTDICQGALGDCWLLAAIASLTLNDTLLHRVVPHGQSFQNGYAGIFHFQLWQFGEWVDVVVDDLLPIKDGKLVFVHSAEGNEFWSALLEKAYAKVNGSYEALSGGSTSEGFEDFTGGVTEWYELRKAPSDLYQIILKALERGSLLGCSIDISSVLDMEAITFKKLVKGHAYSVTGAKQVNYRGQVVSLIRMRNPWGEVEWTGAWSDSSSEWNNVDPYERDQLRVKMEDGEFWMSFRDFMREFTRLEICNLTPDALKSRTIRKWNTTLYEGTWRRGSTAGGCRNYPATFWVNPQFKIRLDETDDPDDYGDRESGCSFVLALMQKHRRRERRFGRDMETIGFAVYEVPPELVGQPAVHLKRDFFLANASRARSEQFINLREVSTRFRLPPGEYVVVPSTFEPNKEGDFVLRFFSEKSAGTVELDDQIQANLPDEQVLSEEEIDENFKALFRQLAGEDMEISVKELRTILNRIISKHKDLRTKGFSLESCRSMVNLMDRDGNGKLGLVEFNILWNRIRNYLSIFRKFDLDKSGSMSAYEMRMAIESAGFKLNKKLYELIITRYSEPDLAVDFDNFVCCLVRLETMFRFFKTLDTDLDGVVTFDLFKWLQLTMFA
In words: Inhibitory activity evaluated against recombinant human calpain 1.
Regarding `CC(C)C[C@@H](C=O)NC(=O)[C@H](Cc1ccccc1)NC(=O)[C@H](CC(C)C)NC(=O)OCc1ccccc1` (Cbz-Leu-Phe-Leu-aldehyde), the IC50 was 68 nM.

In the case of `CC(C)C[C@H](NC(=O)OCc1ccccc1)C(=O)N[C@H](C=O)CC1CCCCC1` (Cbz-Leu-[Cha]-aldehyde), the IC50 stood at 11 nM. As for `CC(C)C[C@H](NC(=O)OCc1ccccc1)C(=O)N[C@H](C=O)C(C)C` (Cbz-Leu-Val-aldehyde), the IC50 came to 4 nM. With `CC(C)C[C@@H](C=O)NC(=O)[C@H](Cc1c[nH]c2ccccc12)NC(=O)OCc1ccccc1` (Cbz-Trp-Leu-aldehyde), the half-inhibitory concentration (IC50) came to 120 nM.

As to `CC(C)C[C@@H](C=O)NC(=O)[C@H](CC(C)C)NC(=O)[C@H](COC(C)(C)C)NC(=O)OCc1ccccc1` (Cbz-Ser(tBu)-Leu-Leu-aldehyde), the IC50 came out at 12 nM. The value for `CCCC[C@@H](C=O)NC(=O)[C@H](CC(C)C)NC(=O)[C@H](CC(C)C)NC(C)=O` (Ac-Leu-Leu-[Nle]-aldehyde) was 12 nM; that for `CC(=O)N[C@@H](C)C(=O)N[C@@H](CC(C)C)C(=O)N[C@H](C=O)CC(C)C` (Ac-Ala-Leu-Leu-aldehyde) was 18 nM. Consider `CC(C)C[C@@H](C=O)NC(=O)[C@H](CC(C)(C)C)NC(=O)OCc1ccccc1` (Cbz-[tBuAla]-Leu-aldehyde), for which the IC50 stood at 140 nM. The value for `CC(C)C[C@@H](C=O)NC(=O)[C@H](CCCCN)NC(=O)[C@H](CC(C)C)NC(=O)OCc1ccccc1` (Cbz-Leu-Lys-Leu-aldehyde) was approximately 10000 nM.

As to `CC(C)C[C@@H](C=O)NC(=O)[C@H](CC1CCCCC1)NC(=O)OCc1ccccc1` (Cbz-[Cha]-Leu-aldehyde), the IC50 worked out at 580 nM. The value for `CC(C)C[C@H](NC(=O)OCc1ccccc1)C(=O)N[C@H](C=O)C(C)(C)C` (Cbz-Leu-[Tle]-aldehyde) was 35 nM; that for `CC(C)C[C@@H](C=O)NC(=O)[C@H](CC(C)C)NC(=O)/C=C\C(=O)O` was approximately 10000 nM.

As to `CC(C)C[C@@H](C=O)NC(=O)[C@@H](NC(=O)OCc1ccccc1)[C@H](C)O`, the IC50 was determined as 190 nM. For `CC(=O)N[C@@H](CC(C)C)C(=O)N[C@H](C=O)CC(C)C`, the IC50 turned out to be 130 nM.

For `CC(C)C[C@@H](C=O)NC(=O)[C@H](CC(C)C)NC(=O)OCC1c2ccccc2-c2ccccc21`, the IC50 was found to be 11 nM. The value for `CC(=O)N[C@@H](CC(C)C)C(=O)N[C@@H](CC(C)C)C(=O)N[C@H](C=O)CCCNC(=N)N` was 72 nM; that for `CC(=O)N[C@H](C(=O)N[C@@H](Cc1ccccc1)C(=O)N[C@H](C=O)CC(C)C)C(C)C` (Ac-Val-Phe-Leu-aldehyde) was 110 nM; that for `CC(=O)N[C@@H](CC(C)C)C(=O)N[C@@H](CC(C)C)C(=O)N[C@@H](C=O)CC(C)C` was 62 nM. The value for `CC(C)C[C@@H](C=O)NC(=O)[C@H](CCC(N)=O)NC(=O)OCc1ccccc1` (Cbz-Gln-Leu-aldehyde) was 370 nM; that for `CC(=O)N[C@@H](CC(C)C)C(=O)N[C@@H](CC(C)C)C(=O)N[C@H](C=O)Cc1c[nH]c2ccccc12` (Ac-Leu-Leu-Trp-aldehyde) was 150 nM; that for `CSCCC(C=O)NC(=O)C(CC(C)C)NC(=O)[C@H](CC(C)C)NC(C)=O` (single isomer, unassigned) was 23 nM.

As to `CC(C)C[C@H](NC(=O)OCc1ccccc1)C(=O)N[C@H](C=O)Cc1ccc(OCc2ccccc2)cc1` (Cbz-Leu-Tyr(Bn)-aldehyde), the IC50 is 7 nM.

For `CC(C)C[C@@H](C=O)NC(=O)[C@H](CC(C)C)NC(=O)[C@H](CC(C)C)NC(=O)c1ccc2ccccc2c1`, the IC50 worked out at 10 nM. For the compound `CC(=O)N[C@@H](CC(C)C)C(=O)N[C@@H](CC(C)C)C(=O)N[C@H](C=O)CC(C)C`, the IC50 stood at 15 nM. The figure for `CC(C)C[C@@H](C=O)NC(=O)CNC(=O)[C@H](CC(C)C)NC(=O)OCc1ccccc1` (Cbz-Leu-Gly-Leu-aldehyde) is approximately 10000 nM; for `CC(=O)N[C@@H](CC(C)C)C(=O)N[C@@H](CC(C)C)C(=O)N[C@H](C=O)CCCCNC(=O)OC(C)(C)C` (Ac-Leu-Leu-Lys(Boc)-aldehyde) it is 33 nM.
